Values quoted from earlier work in patent US9028802B2, “Method of differentially diagnosing different types of dementia” (Koninklijke Philips Electronics N.V., priority 2007, dated 2015).

Biological target: T1, Dopamine Transporter (DAT) (Homo sapiens, UniProt Q01959)
T1 construct: those areas of the brain in which Dopamine Transporters (DAT) are localized, such as the nigrostriatum; from tissue; host or cells: brain (nigrostriatum) of the living subject, in vivo SPECT
Conditions: SPECT tracer, time point x2 after administration; 'typically'

T1 sequence (Q01959 whole entry): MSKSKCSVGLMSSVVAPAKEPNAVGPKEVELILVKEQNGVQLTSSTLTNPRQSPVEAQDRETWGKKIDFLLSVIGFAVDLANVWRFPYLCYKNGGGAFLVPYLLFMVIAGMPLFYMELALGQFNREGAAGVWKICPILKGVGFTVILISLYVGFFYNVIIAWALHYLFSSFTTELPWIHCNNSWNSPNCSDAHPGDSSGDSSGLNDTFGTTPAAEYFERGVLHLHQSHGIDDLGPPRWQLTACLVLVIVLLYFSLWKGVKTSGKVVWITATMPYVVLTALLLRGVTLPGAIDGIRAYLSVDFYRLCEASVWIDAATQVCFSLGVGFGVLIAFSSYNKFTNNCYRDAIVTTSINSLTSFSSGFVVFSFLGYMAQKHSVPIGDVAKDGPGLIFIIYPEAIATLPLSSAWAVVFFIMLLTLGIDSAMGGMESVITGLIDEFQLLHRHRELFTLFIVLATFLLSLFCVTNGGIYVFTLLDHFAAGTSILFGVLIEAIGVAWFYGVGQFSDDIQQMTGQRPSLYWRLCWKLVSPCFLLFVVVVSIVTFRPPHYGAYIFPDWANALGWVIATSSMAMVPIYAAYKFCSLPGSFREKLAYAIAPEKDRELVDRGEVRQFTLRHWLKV

In the case of COC(=O)C1C2CCC(C[C@@H]1c1ccc(I)cc1)N2CCCF (stereo partly shown) [Datscan], the “time period after which association with Dopamine Transporters is observed” value is given as “three to four”.
